The record followed here is US7612065B2, “Inhibitors of c-JUN N-terminal kinases (JNK)” (priority 2007, dated 2009).

Where only a bound is given, the exact number is not on record here.

This test has as its target T1, JNK3 (Homo sapiens, UniProt P53779).
T1 construct: One such construct encodes amino acid residues Ser40-Glu402 of JNK3α1 and is preceded by Met and Gly residues; Met-Gly (initiation methionine plus glycine added for the NcoI site); made in house; host or cells: E. coli BL21 (DE3)
The test is described as follows: JNK inhibition assay: spectrophotometric coupled-enzyme assay with activated JNK3. In kind it is biochemical. The following applies: activated JNK3 10 nM, 10 μM ATP, 200 μM EGF receptor peptide, 30° C., competitive inhibition model. In short, it runs like this:
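Activated (doubly phosphorylated, MKK7(DD)-activated) human JNK3, 10 nM, preincubated 10 min at 30 °C with inhibitor in 0.1 M HEPES pH 7.5, 10 mM MgCl2, 200 μM EGF receptor peptide, PK/LDH-coupled. Started with 10 μM ATP; A340 decrease followed at 30 °C. Ki from competitive inhibition model fit.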

T1 sequence (P53779 40-402): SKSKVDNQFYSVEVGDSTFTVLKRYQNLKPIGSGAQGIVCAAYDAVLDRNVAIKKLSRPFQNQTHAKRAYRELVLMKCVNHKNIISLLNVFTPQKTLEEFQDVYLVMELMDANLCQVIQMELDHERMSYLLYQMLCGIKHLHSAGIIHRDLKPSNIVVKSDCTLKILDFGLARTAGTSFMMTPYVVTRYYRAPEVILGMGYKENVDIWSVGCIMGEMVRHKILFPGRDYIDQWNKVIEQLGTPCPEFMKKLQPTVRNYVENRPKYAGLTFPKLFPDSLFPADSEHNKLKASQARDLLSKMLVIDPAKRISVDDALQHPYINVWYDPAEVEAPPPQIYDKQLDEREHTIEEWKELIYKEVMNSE

In the case of `COc1cccc(C(=O)Nc2ccc3c(c2)N(Cc2cc(F)cc4c2OCOC4)C(=O)/C3=N\O)c1` [Compound 250], the Ki is below 1000 nM.

As to `O=C(Nc1ccc2c(c1)N(Cc1cc(F)cc3c1OCOC3)C(=O)/C2=N\O)c1cccc(Cl)c1Cl` [Compound 251], the inhibition constant Ki was below 1000 nM.

For the compound `O=C(Nc1ccc2c(c1)N(Cc1cc(F)cc3c1OCOC3)C(=O)/C2=N\O)c1ccc(Cl)cc1Cl` [Compound 252], the Ki was at least 1000 nM.

As to `O=C(Nc1ccc2c(c1)N(Cc1cc(F)cc3c1OCOC3)C(=O)/C2=N\O)c1ccc(Cl)c(Cl)c1` [Compound 253], the inhibitory constant (Ki) was at least 1000 nM.

Regarding `O=C(Nc1ccc2c(c1)N(Cc1cc(F)cc3c1OCOC3)C(=O)/C2=N\O)c1cccnc1` [Compound 254], the Ki was below 1000 nM.

In the case of `O=C(Nc1ccc2c(c1)N(Cc1cc(F)cc3c1OCOC3)C(=O)/C2=N\O)c1cccc(Cl)c1` [Compound 255], the Ki is below 1000 nM.

Take `COc1ccccc1C(=O)Nc1ccc2c(c1)N(Cc1cc(F)cc3c1OCOC3)C(=O)/C2=N\O` [Compound 256]: the inhibition constant Ki was below 1000 nM.

With `O=C(Nc1ccc2c(c1)N(Cc1cc(F)cc3c1OCOC3)C(=O)/C2=N\O)N1CCOCC1` [Compound 257], the Ki was at least 1000 nM.

In the case of `CCOC(=O)C(=O)Nc1ccc2c(c1)N(Cc1cc(F)cc3c1OCOC3)C(=O)/C2=N\O` [Compound 258], the inhibitory constant (Ki) was below 1000 nM.

Turning to `COC(=O)CC(=O)Nc1ccc2c(c1)N(Cc1cc(F)cc3c1OCOC3)C(=O)/C2=N\O` [Compound 259], the Ki was below 1000 nM.

Regarding `O=C(Nc1ccc2c(c1)N(Cc1cc(F)cc3c1OCOC3)C(=O)/C2=N\O)c1ccc([N+](=O)[O-])cc1` [Compound 260], the Ki was below 1000 nM.

With `CC(C)C(=O)Nc1ccc2c(c1)N(Cc1cc(F)cc3c1OCOC3)C(=O)/C2=N\O` [Compound 261], the Ki is below 1000 nM.

Consider `CS(=O)(=O)Nc1ccc2c(c1)N(Cc1cc(F)cc3c1OCOC3)C(=O)/C2=N\O` [Compound 262], for which the inhibitory constant (Ki) is below 1000 nM.

Regarding `CCS(=O)(=O)Nc1ccc2c(c1)N(Cc1cc(F)cc3c1OCOC3)C(=O)/C2=N\O` [Compound 263], the inhibition constant Ki is below 1000 nM.

In the case of `CC(C)S(=O)(=O)Nc1ccc2c(c1)N(Cc1cc(F)cc3c1OCOC3)C(=O)/C2=N\O` [Compound 264], the Ki was at least 1000 nM.

Regarding `COc1ccc(S(=O)(=O)Nc2ccc3c(c2)N(Cc2cc(F)cc4c2OCOC4)C(=O)/C3=N\O)cc1` [Compound 265], the Ki is at least 1000 nM.

As to `Cc1ccccc1C(=O)c1ccc2c(c1)/C(=N\O)C(=O)N2Cc1cc(F)cc2c1OCOC2` [Compound 268], the Ki is below 1000 nM.

`O=C(Nc1ccc2c(c1)N(Cc1cc(F)cc3c1OCOC3)C(=O)/C2=N\O)N1CCOCC1` [Compound 269]: the Ki was below 1000 nM.

Take `O=C1/C(=N\O)c2cc(Br)ccc2N1Cc1cc(F)cc2c1OCOC2` [Compound 278]: the Ki was below 1000 nM.

As for `CC(=O)Nc1cccc(-c2ccc3c(c2)/C(=N/O)C(=O)N3Cc2cc(F)cc3c2OCOC3)c1` [Compound 279], the inhibition constant (Ki) is at least 1000 nM.

Regarding `Nc1cccc(-c2ccc3c(c2)/C(=N/O)C(=O)N3Cc2cc(F)cc3c2OCOC3)c1` [Compound 280], the Ki was at least 1000 nM.

With `O=C1/C(=N\O)c2cc(-c3cccnc3)ccc2N1Cc1cc(F)cc2c1OCOC2` [Compound 281], the Ki was at least 1000 nM.

Consider `Nc1cccc2c1/C(=N/O)C(=O)N2Cc1cc(F)cc2c1OCOC2` [Compound 282], for which the inhibition constant Ki was at least 1000 nM.

As to `O=C1/C(=N\O)c2cc(-c3ccc(CO)cc3)ccc2N1Cc1cc(F)cc2c1OCOC2` [Compound 283], the inhibition constant (Ki) was at least 1000 nM.

With `O=C1/C(=N\O)c2cc([N+](=O)[O-])ccc2N1Cc1cc(F)cc2c1OCOC2` [Compound 284], the inhibitory constant (Ki) was at least 1000 nM.

Regarding `Nc1ccc2c(c1)/C(=N/O)C(=O)N2Cc1cc(F)cc2c1OCOC2` [Compound 285], the inhibition constant (Ki) is at least 1000 nM.

Turning to `O=C1/C(=N\O)c2c(F)cc(F)cc2N1Cc1cc(F)cc2c1OCOC2` [Compound 286], the Ki was below 1000 nM.

Turning to `CC(C)CNC(=O)c1ccc2c(c1)N(Cc1cc(F)cc3c1OCOC3)C(=O)/C2=N\O` [Compound 287], the Ki was at least 1000 nM.

Take `COC(=O)CNC(=O)c1ccc2c(c1)N(Cc1cc(F)cc3c1OCOC3)C(=O)/C2=N\O` [Compound 288]: the inhibitory constant (Ki) was at least 1000 nM.

As for `O=C(NCCN1CCCC1)c1ccc2c(c1)N(Cc1cc(F)cc3c1OCOC3)C(=O)/C2=N\O` [Compound 289], the Ki was at least 1000 nM.

For the compound `O=C(NCC1CCCO1)c1ccc2c(c1)N(Cc1cc(F)cc3c1OCOC3)C(=O)/C2=N\O` (stereo not shown) [Compound 290], the inhibitory constant (Ki) is at least 1000 nM.

Turning to `CCNC(=O)c1ccc2c(c1)N(Cc1cc(F)cc3c1OCOC3)C(=O)/C2=N\O` [Compound 291], the Ki was at least 1000 nM.

`O=C(NCCc1c[nH]cn1)c1ccc2c(c1)N(Cc1cc(F)cc3c1OCOC3)C(=O)/C2=N\O` [Compound 292]: the Ki was at least 1000 nM.

Take `CCCNC(=O)c1ccc2c(c1)N(Cc1cc(F)cc3c1OCOC3)C(=O)/C2=N\O` [Compound 293]: the inhibition constant Ki is at least 1000 nM.

On to `CC(C)CCNC(=O)c1ccc2c(c1)N(Cc1cc(F)cc3c1OCOC3)C(=O)/C2=N\O` [Compound 294], for which the Ki was at least 1000 nM.

As to `CN(C)CCNC(=O)c1ccc2c(c1)N(Cc1cc(F)cc3c1OCOC3)C(=O)/C2=N\O` [Compound 295], the inhibitory constant (Ki) is at least 1000 nM.

As for `CCOC(=O)CCNC(=O)c1ccc2c(c1)N(Cc1cc(F)cc3c1OCOC3)C(=O)/C2=N\O` [Compound 296], the Ki was at least 1000 nM.

On to `CN1CCCC1CCNC(=O)c1ccc2c(c1)N(Cc1cc(F)cc3c1OCOC3)C(=O)/C2=N\O` (stereo not shown) [Compound 297], for which the Ki was at least 1000 nM.

As to `O=C(NCCN1CCCCC1)c1ccc2c(c1)N(Cc1cc(F)cc3c1OCOC3)C(=O)/C2=N\O` [Compound 298], the Ki was at least 1000 nM.

With `C[Si](C)(C)C#Cc1cccc2c1/C(=N/O)C(=O)N2Cc1cc(F)cc2c1OCOC2` [Compound 299], the Ki is at least 1000 nM.

`O=C1/C(=N\O)c2cc(NCc3ccccc3)ccc2N1Cc1cc(F)cc2c1OCOC2` [Compound 300]: the Ki was at least 1000 nM.

As to `Cc1cccc2c1/C(=N/O)C(=O)N2Cc1cc(F)cc2c1OCOC2` [Compound 301], the Ki is below 1000 nM.

As for `O=C(c1ccccc1)c1ccc2c(c1)/C(=N/O)C(=O)N2Cc1cc(F)cc2c1OCOC2` [Compound 302], the Ki is at least 1000 nM.

In the case of `O=C(O)c1ccc(CNc2ccc3c(c2)/C(=N/O)C(=O)N3Cc2cc(F)cc3c2OCOC3)cc1` [Compound 303], the inhibition constant Ki is at least 1000 nM.

Regarding `O=C1/C(=N\O)c2cc(NCc3ccc(O)cc3)ccc2N1Cc1cc(F)cc2c1OCOC2` [Compound 304], the inhibition constant (Ki) is at least 1000 nM.

As to `COc1ccc(CNc2ccc3c(c2)/C(=N/O)C(=O)N3Cc2cc(F)cc3c2OCOC3)cc1O` [Compound 305], the Ki is at least 1000 nM.

With `O=C1/C(=N\O)c2c(CCc3ccccc3)cccc2N1Cc1cc(F)cc2c1OCOC2` [Compound 306], the inhibition constant Ki was at least 1000 nM.

As for `C=Cc1cccc2c1/C(=N/O)C(=O)N2Cc1cc(F)cc2c1OCOC2` [Compound 307], the Ki is below 1000 nM.

For `CC(C)CCN(CCC(C)C)c1ccc2c(c1)/C(=N/O)C(=O)N2Cc1cc(F)cc2c1OCOC2` [Compound 308], the Ki was at least 1000 nM.

Consider `O=C(O)CCCN(CCCC(=O)O)c1ccc2c(c1)/C(=N/O)C(=O)N2Cc1cc(F)cc2c1OCOC2` [Compound 309], for which the inhibition constant Ki was at least 1000 nM.

`O=C1/C(=N\O)c2cc(N(CC3CCCCC3)CC3CCCCC3)ccc2N1Cc1cc(F)cc2c1OCOC2` [Compound 310]: the Ki is at least 1000 nM.

Turning to `CC(C)CNc1ccc2c(c1)/C(=N/O)C(=O)N2Cc1cc(F)cc2c1OCOC2` [Compound 311], the Ki was at least 1000 nM.

Regarding `O=C1/C(=N\O)c2cc(N(CCCc3ccccc3)CCCc3ccccc3)ccc2N1Cc1cc(F)cc2c1OCOC2` [Compound 312], the Ki was at least 1000 nM.

Turning to `O=C1/C(=N\O)c2ccc(-c3ccc(F)cc3F)cc2N1Cc1cc(F)cc2c1OCOC2` [Compound 313], the inhibitory constant (Ki) is below 1000 nM.

For the compound `O=C1/C(=N\O)c2ccc(-c3ccccc3C(F)(F)F)cc2N1Cc1cc(F)cc2c1OCOC2` [Compound 314], the Ki is at least 1000 nM.

Take `O=Cc1ccccc1-c1ccc2c(c1)N(Cc1cc(F)cc3c1OCOC3)C(=O)/C2=N\O` [Compound 315]: the Ki is below 1000 nM.

Turning to `Cc1ccccc1-c1ccc2c(c1)N(Cc1cc(F)cc3c1OCOC3)C(=O)/C2=N\O` [Compound 316], the Ki is below 1000 nM.

In the case of `CC(=O)Nc1cccc(-c2ccc3c(c2)N(Cc2cc(F)cc4c2OCOC4)C(=O)/C3=N\O)c1` [Compound 317], the Ki is below 1000 nM.

Regarding `O=C1/C(=N\O)c2ccc(-c3cc4ccccc4o3)cc2N1Cc1cc(F)cc2c1OCOC2` [Compound 318], the inhibition constant (Ki) was below 1000 nM.

For the compound `Cc1cc(F)ccc1C(=O)c1ccc2c(c1)/C(=N/O)C(=O)N2Cc1cc(F)cc2c1OCOC2` [Compound 319], the inhibition constant (Ki) was below 1000 nM.

Take `O=C(Nc1ccc2c(c1)N(Cc1cc(F)cc3c1OCOC3)C(=O)/C2=N/O)c1cccc(Oc2ccccc2)c1` [Compound 320]: the Ki was at least 1000 nM.

Turning to `COc1ccc(C(=O)Nc2ccc3c(c2)N(Cc2cc(F)cc4c2OCOC4)C(=O)/C3=N/O)cc1OCc1ccccc1` [Compound 321], the inhibitory constant (Ki) was below 1000 nM.

On to `CC(=O)OC(C(=O)Nc1ccc2c(c1)N(Cc1cc(F)cc3c1OCOC3)C(=O)/C2=N/O)c1ccccc1` (stereo not shown) [Compound 322], for which the inhibition constant Ki is at least 1000 nM.

As for `CCC(C(=O)Nc1ccc2c(c1)N(Cc1cc(F)cc3c1OCOC3)C(=O)/C2=N/O)c1ccccc1` (stereo not shown) [Compound 323], the Ki is below 1000 nM.

As to `COc1ccc(CC(=O)Nc2ccc3c(c2)N(Cc2cc(F)cc4c2OCOC4)C(=O)/C3=N/O)cc1OC` [Compound 324], the Ki was at least 1000 nM.

Take `CCc1cccc2c1/C(=N/O)C(=O)N2Cc1cc(F)cc2c1OCOC2` [Compound 325]: the inhibition constant (Ki) is at least 1000 nM.

Consider `C/C=C/c1cccc2c1/C(=N/O)C(=O)N2Cc1cc(F)cc2c1OCOC2` [Compound 326], for which the Ki is below 1000 nM.

For orientation: Ki means a dissociation constant, usually derived from enzyme kinetics or from competition with a known ligand.
